This note sets out measurements from US5534521A, “Benzimidazole compounds” (G. D. Searle & Co., priority 1994, dated 1996).

One assay has as its target T1, 5-HT3 receptor (Rattus norvegicus, UniProt P35563).
T1 construct: Brain cortices were obtained from male rats and a membrane fraction prepared by standard techniques; from tissue; host or cells: rat brain cortex membranes (male rats)
T1 sequence (P35563 24-483): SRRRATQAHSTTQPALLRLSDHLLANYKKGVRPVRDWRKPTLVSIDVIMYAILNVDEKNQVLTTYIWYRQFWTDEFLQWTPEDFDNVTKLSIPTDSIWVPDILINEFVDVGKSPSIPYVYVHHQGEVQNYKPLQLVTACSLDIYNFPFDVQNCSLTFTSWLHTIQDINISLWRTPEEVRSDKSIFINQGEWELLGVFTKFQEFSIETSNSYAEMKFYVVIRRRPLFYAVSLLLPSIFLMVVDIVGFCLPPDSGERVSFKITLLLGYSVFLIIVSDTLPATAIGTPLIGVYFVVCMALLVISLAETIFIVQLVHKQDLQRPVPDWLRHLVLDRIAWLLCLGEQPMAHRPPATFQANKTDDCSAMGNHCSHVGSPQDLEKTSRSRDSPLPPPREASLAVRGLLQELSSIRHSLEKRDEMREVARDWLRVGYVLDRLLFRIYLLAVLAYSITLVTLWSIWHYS
Briefly: Serotonin (5-HT3) radioligand receptor binding, [3H]-GR65630, rat brain cortex membranes. The protocol:
(§1) 5-HT4 agonist activity was determined in the in vitro rat tunica muscularis mucosae (TMM) assay. (Baxter et al., Naunyn Schmied Arch. Pharmacol, 1991, 343, 439). The 5-HT4 agonist or antagonist activity and/or 5-HT3 antagonist activity of the compounds of the invention herein, can be determined by the assays as described herein, without undue experimention.
GR65630 binds to the 5-HT3 receptor. Brain cortices were obtained from male rats and a membrane fraction prepared by standard techniques. 0.04 mg of membrane prep was incubated with 0.2 nM […] for 60 minutes at 22° C. […] Kilpatrick G. J., Jones B. J. and Tyers M. B. Identification and distribution of 5-HT3 receptors in rat brain using radioligand binding assay. Nature, 330: 746-748, 1987.

The next assay concerns 5-HT3. Briefly: Bezold-Jarisch Reflex (5-HT-induced bradycardia in anesthetized mice). Type of assay: in vivo. The settings on record: i.p., 30 min before 5-HT (0.25 mg/kg i.v.), >50 percent reduction in bradycardic response vs vehicle. The protocol: as §1
The compound to be evaluated was administered i.p. (mg/kg) to a group of 3 mice.
This method has been described by Saxena, P. R. and Lawang, A., Arch. Int. Pharmacodyn., 277:235-252, 1985.

The target of the next assay is T2, 5-HT4 receptor (Rattus norvegicus, UniProt Q62758).
T2 construct: One 2 cm segment of intrathoracic esophagus proximal to the diaphragm was removed from male rats; from tissue; host or cells: rat intrathoracic esophagus, inner tunica muscularis mucosae (male rats)
T2 sequence (Q62758 whole entry): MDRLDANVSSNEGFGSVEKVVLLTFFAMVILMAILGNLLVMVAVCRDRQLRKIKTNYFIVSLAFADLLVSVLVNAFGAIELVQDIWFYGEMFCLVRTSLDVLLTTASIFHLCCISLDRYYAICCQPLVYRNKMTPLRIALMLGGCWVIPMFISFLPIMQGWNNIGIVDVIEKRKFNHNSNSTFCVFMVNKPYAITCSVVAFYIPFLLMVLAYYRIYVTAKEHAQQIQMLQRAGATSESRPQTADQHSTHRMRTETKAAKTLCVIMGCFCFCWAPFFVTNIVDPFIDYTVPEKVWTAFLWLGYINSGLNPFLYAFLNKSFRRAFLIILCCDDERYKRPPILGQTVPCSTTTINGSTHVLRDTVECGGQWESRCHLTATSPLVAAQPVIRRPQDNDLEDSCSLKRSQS
Briefly: cell-based. The settings on record: carbachol (3 μM) contracted rat tunica muscularis mucosae, 37° C., cumulative addition, tissues from 5 rats; read-out: 5-HT4 Agonism (Rat TMM) In Vitro Assay: EC50 Values. Here is the method: as §1
Agonist activity was determined utilizing relaxation of carbachol-contracted rat tunica muscularis mucosae. One 2 cm segment of intrathoracic esophagus proximal to the diaphragm was removed from male rats, weighing approximately 300 gm, and the outer muscle layers removed. The inner tunica muscularis mucosa was mounted under 0.2-0.3 g of tension in a tissue bath containing oxygenated Tyrode's solution at 37° C. […] Following a 30 min equilibrium period, tissues were isometrically contracted with carbachol (3 μM) to obtain a tonic contraction. A stable plateau was obtained within 20 min when test compound was added cumulatively to relax the muscle strip. EC50 values were obtained for each agonist in tissues from 5 rats.

Consider `CC(C)n1c(=O)n(C(=O)NC2C3CC4CC2CN(C4)C3)c2cc(Cl)ccc21` (stereo not drawn) [Example 22B, N-(1-azatricyclo[3.3.1.1^3,7]decan-4-yl)-6-chloro-2,3-dihydro-3-(1-methylethyl)-2-oxo-1H-benzimidazole-1-carboxamide], for which the affinity at 5-HT3 receptor, expressed as Ki, was 4.9 nM. As for `CC(C)n1c(=O)n(C(=O)NCCC23CCCN2CCC3)c2ccccc21` [Example 13, N-[2-(hexahydro-7aH-pyrrolizin-7a-yl)ethyl]-2,3-dihydro-3-(1-methylethyl)-2-oxo-1H-benzimidazole-1-carboxamide], the “Minimum Effective Dose (MED)” value with 5-HT3 worked out at 10 mg/kg. The same measure, in the same setting: under `CN1[C@@H]2C[C@@H](OC(=O)[C@H](CO)c3ccccc3)C[C@H]1[C@@H]1O[C@@H]12` [scopolamine] stands 2.5 mg/kg.

For the compound `CC(C)n1c(=O)n(C(=O)NC[C@@H]2CCN3CCC[C@@H]23)c2ccccc21` (relative stereo) [Example 23, cis-N-[(hexahydro-1H-pyrrolizin-1-yl)methyl]-2,3-dihydro-3-(1-methylethyl)-2-oxo-1H-benzimidazole-1-carboxamide], in the assay with 5-HT3, the “Minimum Effective Dose (MED)” value was 1 mg/kg. The EC50 (as a rule, the concentration at which the effect is half-maximal) at 5-HT4 receptor is 374 nM. Affinity at 5-HT3 receptor was put at a Ki of 75 nM. `Cc1nc[nH]c1CCC(=O)c1cn(C)c2ccccc12` [GR65630]: the “% Specific Binding” value on 5-HT3 receptor (radioligand, non-specific binding in the presence of 1 uM ICS 205-930) was 70%.

With `CCN(CC)CCNC(=O)c1cc(Cl)c(N)cc1OC` [metoclopramide], the “Minimum Effective Dose (MED)” value in the assay with 5-HT3 was 5 mg/kg. `O=c1[nH]c2ccccc2n1CCCN1CCC(n2c(=O)[nH]c3cc(Cl)ccc32)CC1` [domperidone]: in the assay on 5-HT3, the “Minimum Effective Dose (MED)” value is reported as over 10 mg/kg. For the compound `CC(C)n1c(=O)n(C(=O)NC2C3CC4CC2CN(C4)C3)c2ccc(Cl)cc21` (stereo not drawn) [Example 17, N-(1-azatricyclo[3.3.1.1^3,7]decan-4-yl)-5-chloro-2,3-dihydro-3-(1-methylethyl)-2-oxo-1H-benzimidazole-1-carboxamide], the inhibition at 10 µM at 5-HT3 receptor (1 h, read-out: Effect of Compounds on [H]-GR65630 Bound (0.2 nM), % @ 10,000 nM) was found to be 41%. With `CN1C2CCCC1CC(NC(=O)c1nn(C)c3ccccc13)C2` (stereo not drawn) [BRL-43694], the “Minimum Effective Dose (MED)” value in the assay with 5-HT3 is 0.05 mg/kg. Still for that read-out and setting: the same measure for `CCC(CO)NC(=O)C1C=C2c3cccc4c3c(cn4C)CC2N(C)C1` (stereo not drawn) [methylsergide]: over 10 mg/kg.
